molecular target: T1, vanilloid receptor 1 (VR1/TRPV1 receptor) (Homo sapiens, UniProt Q8NER1); assay: Functional testing on vanilloid receptor 1: FLIPR Ca2+ influx assay against capsaicin (Cap) in transfected CHO K1 cells (pharmacological method II); type: cell-based; parameters: key to (f) Ki (human being) [nM] Cap: agonist classification: AG = agonist; settings: @ 1µM; human VR1 in CHO K1 cells; capsaicin; relative to maximum inhibition with 10 µM capsazepine; read-out: inhibition (as a percentage), printed in column (f) Ki (human being) [nM] Cap; for Ki: 100 nM capsaicin
T1 construct: expressed in transfected cells; host or cells: CHO K1 cells (ECACC), stably transfected
Description: […]

T1 sequence (Q8NER1 whole entry): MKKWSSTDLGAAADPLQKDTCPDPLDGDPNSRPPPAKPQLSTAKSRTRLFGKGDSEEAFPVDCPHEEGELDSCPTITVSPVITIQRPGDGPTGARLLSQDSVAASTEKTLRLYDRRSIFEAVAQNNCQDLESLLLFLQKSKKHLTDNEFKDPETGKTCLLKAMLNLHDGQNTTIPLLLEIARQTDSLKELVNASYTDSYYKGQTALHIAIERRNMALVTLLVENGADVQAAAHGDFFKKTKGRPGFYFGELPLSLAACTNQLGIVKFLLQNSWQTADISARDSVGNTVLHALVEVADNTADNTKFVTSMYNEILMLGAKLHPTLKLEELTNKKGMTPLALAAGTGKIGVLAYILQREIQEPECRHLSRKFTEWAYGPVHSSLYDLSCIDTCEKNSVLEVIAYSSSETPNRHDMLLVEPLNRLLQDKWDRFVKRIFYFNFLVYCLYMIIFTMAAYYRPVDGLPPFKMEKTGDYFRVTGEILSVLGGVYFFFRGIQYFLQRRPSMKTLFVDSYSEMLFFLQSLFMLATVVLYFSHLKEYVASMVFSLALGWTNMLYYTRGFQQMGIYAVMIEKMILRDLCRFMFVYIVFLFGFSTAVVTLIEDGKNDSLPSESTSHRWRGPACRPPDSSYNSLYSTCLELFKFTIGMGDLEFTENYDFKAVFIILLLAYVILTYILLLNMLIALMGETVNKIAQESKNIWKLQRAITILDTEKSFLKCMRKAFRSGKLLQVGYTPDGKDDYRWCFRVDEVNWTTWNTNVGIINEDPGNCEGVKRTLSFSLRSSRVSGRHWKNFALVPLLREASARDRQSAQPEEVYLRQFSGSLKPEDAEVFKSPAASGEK

inhibition at 1 µM | Structure (SMILES)
34% | O=C(NCc1cc(C(F)(F)F)nn1-c1cccc(F)c1)Nc1ccc(OCC(O)CO)cc1 (stereo not drawn) [A26, 1-[4-(2,3-Dihydroxy-propoxy)-phenyl]-3-[[2-(3-fluorophenyl)-5-(trifluoromethyl)-2H-pyrazol-3-yl]-methyl]-urea]

same assay, conditions: @ 5µM; human VR1 in CHO K1 cells; capsaicin; relative to maximum inhibition with 10 µM capsazepine; read-out: inhibition (as a percentage), printed in column (f) Ki (human being) [nM] Cap

inhibition at 5 µM | Structure (SMILES)
35% | CC(C)(C)c1cc(CNC(=O)Nc2ccc(C(C)(CO)CO)cc2)n(-c2cccc(Cl)c2)n1 [A157, 1-[[5-tert-Butyl-2-(3-chlorophenyl)-2H-pyrazol-3-yl]-methyl]-3-[4-[2-hydroxy-1-(hydroxymethyl)-1-methyl-ethyl]-phenyl]-urea]

same assay, conditions: human VR1 in CHO K1 cells; AG printed instead of a Ki

(f) Ki (human being) [nM] Cap: agonist classification | Structure (SMILES)
AG | CC(O)c1ccc(C(C)C(=O)NCc2cc(C(C)(C)C)nn2-c2cccc(Cl)c2)cc1F (stereo not drawn) [A98, N-[[5-tert-Butyl-2-(3-chlorophenyl)-2H-pyrazol-3-yl]-methyl]-2-[3-fluoro-4-(1-hydroxy-ethyl)-phenyl]-propionamide]
AG | COc1cc(NC(=O)NCc2cc(C(F)(F)F)nn2-c2cccc(Cl)c2)ccc1O [A15, 1-[[2-(3-Chlorophenyl)-5-(trifluoromethyl)-2H-pyrazol-3-yl]-methyl]-3-(4-hydroxy-3-methoxy-phenyl)-urea]
AG | COc1cc(C(C)C(=O)NCc2cc(C(C)(C)C)nn2-c2cccc(Cl)c2)ccc1CO (stereo not drawn) [A49, N-[[5-tert-Butyl-2-(3-chlorophenyl)-2H-pyrazol-3-yl]-methyl]-2-[4-(hydroxymethyl)-3-methoxy-phenyl]-propionamide]
AG | CC(C(=O)NCc1cc(C(C)(C)C)nn1-c1cccc(C(F)(F)F)c1)c1ccc(CO)c(F)c1 (stereo not drawn) [A47, N-[[5-tert-Butyl-2-[3-(trifluoromethyl)phenyl]-2H-pyrazol-3-yl]-methyl]-2-[3-fluoro-4-(hydroxymethyl)-phenyl]-propionamide]

same assay, conditions: read-out: (f) Ki (human being) [nM] Cap

Ki | Structure (SMILES)
41 nM | Cc1cccc(-n2nc(C(F)(F)F)cc2CNC(=O)Nc2ccc(CO)c(F)c2)c1F [A76, 1-[3-Fluoro-4-(hydroxymethyl)-phenyl]-3-[[2-(2-fluoro-3-methyl-phenyl)-5-(trifluoromethyl)-2H-pyrazol-3-yl]-methyl]-urea]
1 nM | CC(C)(C)c1cc(CNC(=O)Nc2ccc(CO)cc2)n(-c2cccc(Cl)c2)n1 [A27, 1-[[5-tert-Butyl-2-(3-chlorophenyl)-2H-pyrazol-3-yl]-methyl]-3-[4-(hydroxymethyl)-phenyl]-urea]
26 nM | COc1c(F)cc(CC(=O)NCc2cc(C(F)(F)F)nn2-c2ccc(F)c(Cl)c2)cc1F [A7, N-[[2-(3-Chloro-4-fluoro-phenyl)-5-(trifluoromethyl)-2H-pyrazol-3-yl]-methyl]-2-(3,5-difluoro-4-methoxy-phenyl)-acetamide]
45 nM | CC(C)(C)c1cc(CNC(=O)Nc2ccc(C3(O)COC3)cc2)n(-c2cccc(Cl)c2)n1 [A107, 1-[[5-tert-Butyl-2-(3-chlorophenyl)-2H-pyrazol-3-yl]-methyl]-3-[4-(3-hydroxy-oxetan-3-yl)-phenyl]-urea]
4 nM | CC(C(=O)NCc1cc(C(F)(F)F)nn1-c1cccc(Cl)c1)c1ccc(C2(O)CC2)c(F)c1 (stereo not drawn) [A101, N-[[2-(3-Chlorophenyl)-5-(trifluoromethyl)-2H-pyrazol-3-yl]-methyl]-2-[3-fluoro-4-(1-hydroxy-cyclopropyl)-phenyl]-propionamide]
0.6 nM | CC(C)c1cccc(-n2nc(C(F)(F)F)cc2CNC(=O)C(C)c2ccc(CCO)c(F)c2)c1 (stereo not drawn) [A137, 2-[3-Fluoro-4-(2-hydroxy-ethyl)-phenyl]-N-[[2-(3-isopropyl-phenyl)-5-(trifluoromethyl)-2H-pyrazol-3-yl]-methyl]-propionamide]
46 nM | CC(C(=O)NCc1cc(C(F)(F)F)nn1-c1ccc(F)cc1)c1ccc(CO)c(F)c1 (stereo not drawn) [A46, 2-[3-Fluoro-4-(hydroxymethyl)-phenyl]-N-[[2-(4-fluorophenyl)-5-(trifluoromethyl)-2H-pyrazol-3-yl]-methyl]-propionamide]
30 nM | O=C(NCc1cc(C(F)(F)F)nn1-c1cccc(F)c1)Nc1ccc(CO)c(F)c1 [A62, 1-[3-Fluoro-4-(hydroxymethyl)-phenyl]-3-[[2-(3-fluorophenyl)-5-(trifluoromethyl)-2H-pyrazol-3-yl]-methyl]-urea]
26 nM | O=C(NCc1cc(C(F)(F)F)nn1-c1ccc(F)c(F)c1)Nc1ccc(CO)c(F)c1 [A64, 1-[[2-(3,4-Difluoro-phenyl)-5-(trifluoromethyl)-2H-pyrazol-3-yl]-methyl]-3-[3-fluoro-4-(hydroxymethyl)-phenyl]-urea]
3 nM | CC(C)(C)c1cc(CNC(=O)Nc2ccc(CO)c(F)c2)n(-c2cccc(Cl)c2)n1 [A55, 1-[[5-tert-Butyl-2-(3-chlorophenyl)-2H-pyrazol-3-yl]-methyl]-3-[3-fluoro-4-(hydroxymethyl)-phenyl]-urea]
53 nM | COCc1cccc(-n2nc(C(F)(F)F)cc2CNC(=O)Nc2ccc(CO)c(F)c2)c1 [A84, 1-[3-Fluoro-4-(hydroxymethyl)-phenyl]-3-[[2-[3-(methoxymethyl)-phenyl]-5-(trifluoromethyl)-2H-pyrazol-3-yl]-methyl]-urea]
19 nM | CC(C)(C)c1cc(CNC(=O)Nc2ccc(C3(O)CC3)c(F)c2)n(-c2cccc(Cl)c2)n1 [A105, 1-[[5-tert-Butyl-2-(3-chlorophenyl)-2H-pyrazol-3-yl]-methyl]-3-[3-fluoro-4-(1-hydroxy-cyclopropyl)-phenyl]-urea]
63 nM | COc1ccc(-n2nc(C(F)(F)F)cc2CNC(=O)Nc2ccc(CO)c(F)c2)cc1C [A87, 1-[3-Fluoro-4-(hydroxymethyl)-phenyl]-3-[[2-(4-methoxy-3-methyl-phenyl)-5-(trifluoromethyl)-2H-pyrazol-3-yl]-methyl]-urea]
24 nM | Cc1cccc(-n2nc(C(F)(F)F)cc2CNC(=O)C(C)c2ccc(COCCO)c(F)c2)c1 (stereo not drawn) [A123, 2-[3-Fluoro-4-(2-hydroxy-ethoxy-methyl)-phenyl]-N-[[2-(m-tolyl)-5-(trifluoromethyl)-2H-pyrazol-3-yl]-methyl]-propionamide]
2 nM | CC(C(=O)NCc1cc(C(F)(F)F)nn1-c1cccc(Cl)c1)c1ccc(CO)c(F)c1 (stereo not drawn) [A33, N-[[2-(3-Chlorophenyl)-5-(trifluoromethyl)-2H-pyrazol-3-yl]-methyl]-2-[3-fluoro-4-(hydroxymethyl)-phenyl]-propionamide]
10 nM | O=C(NCc1cc(C(F)(F)F)nn1-c1ccc(Cl)cc1)Nc1ccc(CO)c(F)c1 [A60, 1-[[2-(4-Chlorophenyl)-5-(trifluoromethyl)-2H-pyrazol-3-yl]-methyl]-3-[3-fluoro-4-(hydroxymethyl)-phenyl]-urea]
26 nM | O=C(NCc1cc(C(F)(F)F)nn1-c1cccc(Cl)c1)Nc1ccc(CCO)c(F)c1 [A141, 1-[[2-(3-Chlorophenyl)-5-(trifluoromethyl)-2H-pyrazol-3-yl]-methyl]-3-[3-fluoro-4-(2-hydroxy-ethyl)-phenyl]-urea]
6 nM | CC(O)c1ccc(C(C)C(=O)NCc2cc(C(F)(F)F)nn2-c2cccc(Cl)c2)cc1F (stereo not drawn) [A99, N-[[2-(3-Chlorophenyl)-5-(trifluoromethyl)-2H-pyrazol-3-yl]-methyl]-2-[3-fluoro-4-(1-hydroxy-ethyl)-phenyl]-propionamide]
25 nM | COc1ccc(NC(=O)NCc2cc(C(F)(F)F)nn2-c2cccc(Cl)c2)cc1OC [A14, 1-[[2-(3-Chlorophenyl)-5-(trifluoromethyl)-2H-pyrazol-3-yl]-methyl]-3-(3,4-dimethoxyphenyl)-urea]
8 nM | O=C(NCc1cc(C(F)(F)F)nn1-c1cccc(Cl)c1)Nc1cc(F)c(O)c(F)c1 [A12, 1-[[2-(3-Chlorophenyl)-5-(trifluoromethyl)-2H-pyrazol-3-yl]-methyl]-3-(3,5-difluoro-4-hydroxy-phenyl)-urea]
15 nM | CC(C(=O)NCc1cc(C(F)(F)F)nn1-c1cccc(F)c1)c1ccc(C2(O)CC2)c(F)c1 (stereo not drawn) [A102, 2-[3-Fluoro-4-(1-hydroxy-cyclopropyl)-phenyl]-N-[[2-(3-fluorophenyl)-5-(trifluoromethyl)-2H-pyrazol-3-yl]-methyl]-propionamide]
117 nM | CC(CO)(CO)c1ccc(NC(=O)NCc2cc(C(F)(F)F)nn2-c2cccc(Cl)c2)cc1F [A154, 1-[[2-(3-Chlorophenyl)-5-(trifluoromethyl)-2H-pyrazol-3-yl]-methyl]-3-[3-fluoro-4-[2-hydroxy-1-(hydroxymethyl)-1-methyl-ethyl]-phenyl]-urea]
45 nM | Cc1ccccc1-n1nc(C(F)(F)F)cc1CNC(=O)Nc1ccc(CO)c(F)c1 [A69, 1-[3-Fluoro-4-(hydroxymethyl)-phenyl]-3-[[2-(o-tolyl)-5-(trifluoromethyl)-2H-pyrazol-3-yl]-methyl]-urea]
37 nM | C[C@H](C(=O)NCc1cc(C(F)(F)F)nn1-c1cccc(Cl)c1)c1ccc(CO)c(F)c1 [A34, (2S)-N-[[2-(3-Chlorophenyl)-5-(trifluoromethyl)-2H-pyrazol-3-yl]-methyl]-2-[3-fluoro-4-(hydroxymethyl)-phenyl]-propionamide]
9 nM | O=C(NCc1cc(C(F)(F)F)nn1-c1ccc(F)cc1)Nc1ccc(CO)c(F)c1 [A63, 1-[3-Fluoro-4-(hydroxymethyl)-phenyl]-3-[[2-(4-fluorophenyl)-5-(trifluoromethyl)-2H-pyrazol-3-yl]-methyl]-urea]
1 nM | COc1cc(C(C)C(=O)NCc2cc(C(F)(F)F)nn2-c2cccc(Cl)c2)ccc1CO (stereo not drawn) [A50, N-[[2-(3-Chlorophenyl)-5-(trifluoromethyl)-2H-pyrazol-3-yl]-methyl]-2-[4-(hydroxymethyl)-3-methoxy-phenyl]-propionamide]
11 nM | Cc1cc(-n2nc(C(F)(F)F)cc2CNC(=O)Nc2ccc(CO)c(F)c2)ccc1Cl [A78, 1-[[2-(4-Chloro-3-methyl-phenyl)-5-(trifluoromethyl)-2H-pyrazol-3-yl]-methyl]-3-[3-fluoro-4-(hydroxymethyl)-phenyl]-urea]
